In US8940781B2, “Pesticidal composition and its use” (Sumitomo Chemical Company, Limited, priority 2010, dated 2015):

Test system: Rhizoctonia solani
Assay: Soybean seed treatment test in soil contaminated by Rhizoctonia solani (disease control efficacy)
Type: in vivo, Rhizoctonia solani on soybean (variety: Natto shoryu)
Conditions: seed treatment of soybean; carboxamide compound alone 0.2 g/100 kg of seeds; cultivated 20 days in contaminated soil; versus non-treated plot
Experimental: A cyclohexanone solution (100 microL) containing prescribed amount (weight) of a test compound was applied on seeds of soybean (variety: Natto shoryu) (10 g) by using a rotary apparatus for seed treatment (Seed dresser, manufactured by Hans-Ulrich Hege GmbH).
One day after the application, plastic pot was filled with soil contaminated by Rhizoctonia solani, and the seeds treated with the test compounds were seeded in the soil and cultivated in a glass-greenhouse for 20 days (hereinafter referred to as “treated plot”).
Thereafter, the presence of disease caused by Rhizoctonia solani in the young plants which germinated from each seed was observed and disease severity was calculated according to the following calculation formula (1).
On the other hand, seeds of soybean which were not treated as above were cultivated in the same way as above (hereinafter referred to as “non-treated plot”) and the disease severity in the “non-treated plot” was calculated in the same way as the above “treated plot”. On the basis of the above disease severity in “treated plot” and “non-treated plot”, efficacy in “treated plot” was evaluated according to the following calculation formula (2). […]

| SMILES | efficacy (%) |
| --- | --- |
| CC1CC(C)(C)c2cccc(NC(=O)c3cn(C)nc3C(F)F)c21 (centres unmarked) [carboxamide compound (1)] | 47.4% |
| Cc1nn(C)c(C)c1C(=O)Nc1cccc2c1C(C)CC2(C)C (centres unmarked) [carboxamide compound (5)] | 15.8% |
